Measured values: patent US20260274833A1 (NiKang Therapeutics, Inc., priority 2022, published 2026)

The molecules below were run against T1, CDK2 (Homo sapiens, UniProt P24941) (assay: Phospho-RB measurement in OVCAR3 cells (HTRF phospho-RB cellular kit)). Conditions: inhibition of RB phosphorylation at S807/811 (HTRF, TR-FRET ratio 665/620), 24 h compound treatment, 0.3 to 10,000 nM.
T1 construct: endogenous in cells; host or cells: OVCAR3 cells
Format: cell-based
Summary of the method: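 IC50 came from a four-parameter logistic fit of the DMSO-normalized TR-FRET ratio (665/620 nm). That ratio reflects RB phosphorylation at S807/811, read with an HTRF antibody pair 4 h after adding lysate at room temperature.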
CC(C)(C)c1nc(-c2cccc(NS(=O)(=O)N3Cc4cccc(OC(F)F)c4C3)c2F)c(-c2ccnc(NC3CC4(C3)CS(=O)(=O)C4)n2)s1 [Example 205, N-(3-(2-(tert-butyl)-5-(2-((2,2-dioxido-2-thiaspiro[3.3]heptan-6-yl)amino)-pyrimidin-4-yl)thiazol-4-yl)-2-fluorophenyl)-4-(difluoromethoxy)-isoindoline-2-sulfonamide] gave an IC50 of 40.4 nM. Work on CN(C)c1cccc2c1CN(S(=O)(=O)Nc1cccc(-c3nc(C(C)(C)C)sc3-c3ccnc(NC4CC5(C4)CS(=O)(=O)C5)n3)c1F)C2 [Example 206, N-(3-(2-(tert-butyl)-S-(2-((2,2-dioxido-2-thiaspiro[3.3]heptan-6-yl)amino)-pyrimidin-4-yl)thiazol-4-yl)-2-fluoro-phenyl)-4-(dimethylamino) isoindoline-2-sulfonamide] yielded an IC50 of 619 nM. CNc1cccc2c1CN(S(=O)(=O)Nc1cccc(-c3nc(C(C)(C)C)sc3-c3ccnc(NC4CC5(C4)CS(=O)(=O)C5)n3)c1F)C2 [Example 207, N-(3-(2-(tert-butyl)-5-(2-((2,2-dioxido-2-thiaspiro[3.3]heptan-6-yl)amino)-pyrimidin-4-yl)thiazol-4-yl)-2-fluorophenyl)-4-(methylamino)-isoindoline-2-sulfonamide] was tested, and the IC50 was 199 nM. Work on CC(C)(C)c1nc(-c2cccc(NS(=O)(=O)N3Cc4ccccc4C3c3ccccc3)c2F)c(-c2ccnc(NC3CC4(C3)CS(=O)(=O)C4)n2)s1 (stereo not shown) [Example 208, N-(3-(2-(tert-butyl)-5-(2-((2,2-dioxido-2-thiaspiro[3.3]heptan-6-yl)amino)-pyrimidin-4-yl)thiazol-4-yl)-2-fluoro-phenyl)-1-phenylisoindoline-2-sulfonamide] yielded an IC50 of 3690 nM. In the case of CC1(c2nc(-c3cccc(NS(=O)(=O)N4Cc5ccncc5C4)c3F)c(-c3ccnc(NC4CC5(C4)CS(=O)(=O)C5)n3)s2)CCOCC1 [Example 209, N-(3-(5-(2-((2,2-dioxido-2-thiaspiro-[3.3]-heptan-6-yl)amino)pyrimidin-4-yl)-2-(4-methyltetrahydro-2H-pyran-4-yl)thiazol-4-yl)-2-fluorophenyl)-1,3-dihydro-2H-pyrrolo [3,4-c]-pyridine-2-sulfonamide], the IC50 is reported as 350 nM. Work on CC(C)(C)c1nc(-c2cccc(NS(=O)(=O)N3Cc4cccc(Oc5ccccc5)c4C3)c2F)c(-c2ccnc(NC3CC4(C3)CS(=O)(=O)C4)n2)s1 [Example 210, N-(3-(2-(tert-butyl)-5-(2-((2,2-dioxido-2-thiaspiro[3.3]heptan-6-yl)amino)-pyrimidin-4-yl)thiazol-4-yl)-2-fluoro-phenyl)-4-phenoxy-isoindoline-2-sulfonamide] yielded an IC50 of 505 nM. With CC(C)(C)c1nc(-c2cccc(NS(=O)(=O)N3Cc4cccc(Oc5ccccc5)c4C3)c2F)c(-c2ccnc(NC3CCN(S(C)(=O)=O)CC3)n2)s1 [Example 211, N-(3-(2-(tert-butyl)-5-(2-((1-(methylsulfonyl)-piperidin-4-yl)amino)-pyrimidin-4-yl)thiazol-4-yl)-2-fluoro-phenyl)-4-phenoxyisoindoline-2-sulfonamide] the IC50 was 613 nM. For O=S1(=O)CC2(CC(Nc3nccc(-c4sc(N5C6CCC5COC6)nc4-c4cccc(NS(=O)(=O)N5Cc6ccncc6C5)c4F)n3)C2)C1 [Example 212, N-(3-(2-(3-oxa-8-azabicyclo [3.2.1]octan-8-yl)-5-(2-((2,2-dioxido-2-thiaspiro-[3.3]heptan-6-yl)amino)pyrimidin-4-yl)thiazol-4-yl)-2-fluorophenyl)-1,3-dihydro-2H-pyrrolo [3,4-c]-pyridine-2-sulfonamide], the IC50 was 662 nM. Molecule CC(C)(C)c1nc(-c2cccc(NS(=O)(=O)N3Cc4ccccc4C3Cc3ccccc3)c2F)c(-c2ccnc(NC3CCN(S(C)(=O)=O)CC3)n2)s1 (stereo not shown) [Example 213, 1-benzyl-N-(3-(2-(tert-butyl)-5-(2-((1-(methylsulfonyl)piperidin-4-yl)amino)-pyrimidin-4-yl)thiazol-4-yl)-2-fluoro-phenyl)-isoindoline-2-sulfonamide] has an IC50 of 3300 nM. For CC(C)(C)c1nc(-c2cccc(NS(=O)(=O)N3Cc4cccc(Oc5cccc(F)c5)c4C3)c2F)c(-c2ccnc(NC3CC4(C3)CS(=O)(=O)C4)n2)s1 [Example 214, N-(3-(2-(tert-butyl)-5-(2-((2,2-dioxido-2-thiaspiro[3.3]heptan-6-yl)amino)-pyrimidin-4-yl)thiazol-4-yl)-2-fluorophenyl)-4-(3-fluorophenoxy)-isoindoline-2-sulfonamide], the IC50 was 535 nM. For CC(C)(C)c1nc(-c2cccc(NS(=O)(=O)N3Cc4cccc(Oc5ccc(F)cc5)c4C3)c2F)c(-c2ccnc(NC3CC4(C3)CS(=O)(=O)C4)n2)s1 [Example 215, N-(3-(2-(tert-butyl)-5-(2-((2,2-dioxido-2-thiaspiro[3.3]heptan-6-yl)amino)-pyrimidin-4-yl)thiazol-4-yl)-2-fluoro-phenyl)-4-(4-fluoro-phenoxy)-isoindoline-2-sulfonamide], the IC50 was 601 nM. CC(C)(C)c1nc(-c2cccc(NS(=O)(=O)N3CCc4c(CO)cccc43)c2F)c(-c2ccnc(NC3CC4(C3)CS(=O)(=O)C4)n2)s1 [Example 216, N-(3-(2-(tert-butyl)-5-(2-((2,2-dioxido-2-thiaspiro[3.3]heptan-6-yl)amino)-pyrimidin-4-yl)thiazol-4-yl)-2-fluoro-phenyl)-4-(hydroxymethyl) indoline-1-sulfonamide] gave an IC50 of 65.4 nM. With CC(C)(C)c1nc(-c2cccc(NS(=O)(=O)N3CCc4ccc(-c5ccccc5)cc43)c2F)c(-c2ccnc(NC3CC4(C3)CS(=O)(=O)C4)n2)s1 [Example 217, N-(3-(2-(tert-butyl)-5-(2-((2,2-dioxido-2-thiaspiro[3.3]heptan-6-yl)amino)-pyrimidin-4-yl)thiazol-4-yl)-2-fluoro-phenyl)-6-phenyl-indoline-1-sulfonamide] the IC50 was 934 nM. With CC(C)(C)c1nc(-c2cccc(NS(=O)(=O)N3CCc4ccc(-c5ccccc5)cc43)c2F)c(-c2ccnc(NC3CCN(S(C)(=O)=O)CC3)n2)s1 [Example 218, N-(3-(2-(tert-butyl)-5-(2-((1-(methylsulfonyl)-piperidin-4-yl)amino)-pyrimidin-4-yl)thiazol-4-yl)-2-fluoro-phenyl)-6-phenylindoline-1-sulfonamide] the IC50 was 1300 nM. Molecule CC(C)(C)c1nc(-c2cccc(NS(=O)(=O)N3Cc4cccc(Oc5ccccc5C#N)c4C3)c2F)c(-c2ccnc(NC3CC4(C3)CS(=O)(=O)C4)n2)s1 [Example 219, N-(3-(2-(tert-butyl)-5-(2-((2,2-dioxido-2-thiaspiro[3.3]heptan-6-yl)amino)-pyrimidin-4-yl)thiazol-4-yl)-2-fluorophenyl)-4-(2-cyanophenoxy)-isoindoline-2-sulfonamide] has an IC50 of 583 nM. Work on Cn1c(-c2ccc3c(c2)N(S(=O)(=O)Nc2cccc(-c4nc(C(C)(C)C)sc4-c4ccnc(NC5CC6(C5)CS(=O)(=O)C6)n4)c2F)CC3)cccc1=O [Example 220, N-(3-(2-(tert-butyl)-5-(2-((2,2-dioxido-2-thiaspiro[3.3]heptan-6-yl)amino)-pyrimidin-4-yl)thiazol-4-yl)-2-fluoro-phenyl)-6-(1-methyl-6-oxo-1,6-dihydropyridin-2-yl)indoline-1-sulfonamide] yielded an IC50 of 802 nM. COc1cccc2c1CN(S(=O)(=O)Nc1cccc(-c3nc(C(C)(C)C)sc3-c3ccnc(N[C@H]4[C@@H]5CS(=O)(=O)C[C@@H]54)n3)c1F)C2 [Example 221, N-(3-(2-(tert-butyl)-5-(2-(((1R,5S,6r)-3,3-dioxido-3-thiabicyclo [3.1.0]hexan-6-yl)amino)pyrimidin-4-yl)thiazol-4-yl)-2-fluorophenyl)-4-methoxyisoindoline-2-sulfonamide] was tested, and the IC50 was 35.5 nM. Molecule CC(C)(C)c1nc(-c2cccc(NS(=O)(=O)N3Cc4ccncc4C3)c2F)c(-c2ccnc(N[C@H]3[C@@H]4CS(=O)(=O)C[C@@H]43)n2)s1 [Example 222, N-(3-(2-(tert-butyl)-5-(2-(((1R,5S,6r)-3,3-dioxido-3-thiabicyclo[3.1.0]hexan-6-yl)amino)pyrimidin-4-yl)thiazol-4-yl)-2-fluorophenyl)-1,3-dihydro-2H-pyrrolo[3,4-c]-pyridine-2-sulfonamide] has an IC50 of 152 nM. In the case of CC(C)(C)c1nc(-c2cccc(NS(=O)(=O)N3CCc4ccc(C#N)cc43)c2F)c(-c2ccnc(N[C@H]3[C@@H]4CS(=O)(=O)C[C@@H]43)n2)s1 [Example 223, N-(3-(2-(tert-butyl)-5-(2-(((1R,5S,6r)-3,3-dioxido-3-thiabicyclo [3.1.0]hexan-6-yl)amino)pyrimidin-4-yl)thiazol-4-yl)-2-fluorophenyl)-6-cyanoindoline-1-sulfonamide], the IC50 is reported as 89 nM. CC(C)(C)c1nc(-c2cccc(NS(=O)(=O)N3Cc4cccc(-c5ccccc5)c4C3)c2F)c(-c2ccnc(NC3CCN(S(C)(=O)=O)CC3)n2)s1 [Example 224, N-(3-(2-(tert-butyl)-5-(2-((1-(methylsulfonyl)-piperidin-4-yl)amino)-pyrimidin-4-yl)thiazol-4-yl)-2-fluoro-phenyl)-4-phenylisoindoline-2-sulfonamide] gave an IC50 of 300 nM. CC(C)(C)c1nc(-c2cccc(NS(=O)(=O)N3CCc4ccc(C#N)cc43)c2F)c(-c2ccnc(Nc3ccc(N4CCNCC4)cc3)n2)s1 [Example 225, N-(3-(2-(tert-butyl)-5-(2-((4-(piperazin-1-yl)phenyl)amino)pyrimidin-4-yl)-thiazol-4-yl)-2-fluorophenyl)-6-cyano-indoline-1-sulfonamide] showed an IC50 of 456 nM. CC(C)Oc1cccc2c1CN(S(=O)(=O)Nc1cccc(-c3nc(C(C)(C)C)sc3-c3ccnc(NC4CC5(C4)CS(=O)(=O)C5)n3)c1F)C2 [Example 226, N-(3-(2-(tert-butyl)-5-(2-((2,2-dioxido-2-thiaspiro[3.3]heptan-6-yl)amino)-pyrimidin-4-yl)thiazol-4-yl)~2~fluoro-phenyl)-4-isopropoxyiso-indoline-2-sulfonamide] gave an IC50 of 527 nM.
